Test results as given in patent US6727284B2 (priority 1997, dated 2004).
Entries after “also recorded” stand apart in the source; their conditions may differ.

Key:
[1] = cited from earlier work
[2] = Plasma DCA levels by HPLC in pediatric patients given bolus plus 24 h infusion after cardiopulmonary bypass; assay type: in vivo, human; settings: bolus 100 mg/kg into proximal aorta, then infusion 12.5 mg/kg/hr for 24 hours, therapeutic range 0.2-1 mM, FIG. 1
Protocol: This example describes the use of dichloroacetate administered in a bolus followed by infusion for 24 hrs in pediatric patients after cardiopulmonary bypass.
DCA, in a bolus of 100 mg/kg of 10 mg/ml solution ([…] bolus) is injected into the proximal aorta immediately prior to discontinuing the aortic cross-clamp. Immediately thereafter, an infusion of DCA at 12.5 mg/kg/hr is initiated and run for 24 hours or longer. Based on the pharmacokinetics of DCA, this dosage regiment is designed to continuous maintain plasma levels of DCA in the therapeutic range of [0.2-1 mM]—in contrast to transient therapeutic levels.
Blood samples are collected from the indwelling lines of patients in citrate-containing tubes. These samples are centrifuged to separate the plasma and frozen. The frozen samples are later analyzed for DCA concentration by using a high performance liquid chromatography technique (HPLC). See generally Thannikkuto et al., “Dichloracetate (DCA) stimulates pyruvate dehydrogenase complex (PDC) activity in hearts of patients undergoing coronary artery bypass grafting (CABG)” Can. J. Cardiol. 10(suppl. C):130C (1994). Briefly, the analysis was performed on a lonoSpher A (250×4.6 mm L X ID) column accompanied by a guard column AX. Both of the columns were purchased from Chrompack Canada. The mobile phase used was 10^−3 M pyromellitate buffer (pH 3.8-4.0) at a flow rate of […]. […]

[3] = Side-effects of dichloroacetate in patients; assay type: in vivo, human
Source text: Higher dosages are permitted.

Question: Which results are given for O=C(O)C(Cl)Cl [dichloroacetate]?
Answer: half-life ([1]; in vivo): approximately 40 minutes; time blood levels stay in the therapeutic range ([1]; single bolus administration): less than one hour; patient blood (plasma) levels of dichloroacetate [2]: continuously maintained patient blood levels of dichloroacetate in the therapeutic range; patient blood (plasma) levels of dichloroacetate ([2]; listed as dichloro acetate): maintained. at high (and therefore therapeutic) levels over a 24 hour period; side-effects [3]: does not have significant sideeffects; also recorded: some patients experience mild drowsiness
